In patent US20260176320A1, “MODULATORS OF G-PROTEIN COUPLED RECEPTORS” (priority 2018, published 2026):
Read-outs that look alike come from different tables or passages of the source.

Experiments:
Assay type in all cases: cell-based
[1] = biological target: T1, GLP-1R (Homo sapiens, UniProt P43220); assay: HitHunter cAMP assay (GLP-1R); details: cAMP; for Emax: read-out: (Emax) GLP-1R
How it was run: (§1)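 Luminescent readout of cAMP by enzyme-fragment immunocompetition gave agonist concentration-response data. Cells (10,000/well) sat in HBSS buffer containing IBMX 625 μM, HEPES 10 mM and BSA 0.2%, exposed to agonist for 30 min at room temperature.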

[2] = biological target: T2, GIP-R (Homo sapiens, UniProt P48546); assay: HitHunter cAMP assay (GIP-R); details: cAMP; for Emax: read-out: (Emax) GIP-R; for Emax at 1 µM: read-out: (Emax) GIP-R at 1 μM, Table 3
T2 sequence (P48546 22-466): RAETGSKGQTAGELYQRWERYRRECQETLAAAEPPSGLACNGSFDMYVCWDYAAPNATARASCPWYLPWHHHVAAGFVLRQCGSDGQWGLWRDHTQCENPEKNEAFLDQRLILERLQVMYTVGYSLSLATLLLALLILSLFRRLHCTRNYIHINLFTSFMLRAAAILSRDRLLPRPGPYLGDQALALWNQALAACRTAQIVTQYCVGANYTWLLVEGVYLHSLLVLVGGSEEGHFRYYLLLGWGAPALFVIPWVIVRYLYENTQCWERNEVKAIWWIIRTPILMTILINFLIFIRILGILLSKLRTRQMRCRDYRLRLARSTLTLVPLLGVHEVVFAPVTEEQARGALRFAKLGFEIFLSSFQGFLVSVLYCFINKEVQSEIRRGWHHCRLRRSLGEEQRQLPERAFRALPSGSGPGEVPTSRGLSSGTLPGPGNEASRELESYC
How it was run: as §1

[3] = biological target: T1, GLP-1R; assay: PathHunter β-arrestin assay
How it was run: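 Overnight-plated cells; 0.2% BSA medium; agonist 22-pt 2× dilution series, duplicate; 90 min, 37 °C/5% CO2; detection reagent 3 h RT, dark; luminescence.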

[4] = Table 3, read-out: EC50 GLP-1R/nM
[5] = Table 3A, read-out: EC50 GLP-1R/nM
[6] = Table 3, read-out: EC50 GIP-R/nM
[7] = Table 3A, read-out: EC50 GIP-R/nM
[8] = PathHunter β-arrestin assay, read-out: β-arrestin activity EC50

T1 sequence (P43220 24-463): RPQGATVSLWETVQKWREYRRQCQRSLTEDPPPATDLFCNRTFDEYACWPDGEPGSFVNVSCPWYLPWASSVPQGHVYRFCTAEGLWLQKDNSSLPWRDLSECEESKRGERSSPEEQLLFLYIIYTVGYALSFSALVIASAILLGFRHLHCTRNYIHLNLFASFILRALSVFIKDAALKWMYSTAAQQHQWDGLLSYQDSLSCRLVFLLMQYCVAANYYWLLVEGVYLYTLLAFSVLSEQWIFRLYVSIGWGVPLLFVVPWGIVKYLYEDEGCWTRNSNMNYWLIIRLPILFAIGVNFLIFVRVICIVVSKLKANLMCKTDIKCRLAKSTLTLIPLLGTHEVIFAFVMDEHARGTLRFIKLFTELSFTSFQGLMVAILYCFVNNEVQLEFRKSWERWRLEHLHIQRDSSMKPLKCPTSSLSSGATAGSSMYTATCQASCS

Structure (SMILES) | EC50 ([1]; EC50 GLP-1R/nM, Table 3) [nM] | EC50 ([1]; EC50 GLP-1R/nM, Table 3A) [nM] | Emax ([1]; Table 3) [%] | Emax ([1]; Table 3A) [%] | EC50 ([2]; EC50 GIP-R/nM, Table 3) [nM] | EC50 ([2]; EC50 GIP-R/nM, Table 3A) [nM] | Emax ([2]; Table 3) [%] | Emax ([2]; Table 3A) [%] | EC50 [3] [nM] | EC50 [1, 4] [nM] | EC50 [1, 5] [nM] | EC50 [2, 6] [nM] | EC50 [2, 7] [nM] | EC50 [3, 8] [nM] | EC50 ([2]; read-out: EC50 GIP-R/nM, Table 3) [nM] | EC50 ([2]; read-out: EC50 GIP-R/nM, Table 3A) [nM] | Emax at 1 µM [2] [%]
CC[C@H](C)[C@H](NC(=O)[C@H](CO)NC(=O)[C@H](Cc1ccc(O)cc1)NC(=O)[C@H](CC(=O)O)NC(=O)[C@H](CO)NC(=O)[C@@H](NC(=O)[C@H](Cc1ccccc1)NC(=O)[C@@H](NC(=O)CNC(=O)[C@H](CCC(=O)O)NC(=O)CSCC(=O)NCCN1C(=O)c2cc3ccccc3cc2C1=O)[C@@H](C)O)[C@@H](C)O)C(=O)N[C@@H](Cc1ccc(O)cc1)C(=O)N[C@@H](CC(C)C)C(=O)N[C@@H](CC(=O)O)C(=O)N[C@@H](CCCCN)C(=O)N[C@@H](CCC(N)=O)C(=O)N[C@@H](C)C(=O)N[C@@H](C)C(=O)NC(C)(C)C(=O)N[C@@H](CCC(=O)O)C(=O)N[C@@H](Cc1ccccc1)C(=O)N[C@H](C(=O)N[C@@H](CC(N)=O)C(=O)N[C@@H](Cc1c[nH]c2ccccc12)C(=O)N[C@@H](CC(C)C)C(=O)N[C@@H](CC(C)C)C(=O)N[C@@H](C)C(=O)NCC(=O)NCC(=O)N1CCC[C@H]1C(=O)N[C@@H](CO)C(=O)N[C@@H](CO)C(=O)NCC(=O)N[C@@H](C)C(=O)N1CCC[C@H]1C(=O)N1CCC[C@H]1C(=O)N1CCC[C@H]1C(=O)N[C@@H](CO)C(=O)N[C@@H](CCCCN)C(N)=O)C(C)C [Compound 163] | 10 to 100 | 10 to 100 | 73 | 73 | < 0.1 | < 0.1 | 106 | 106 | > 1000 |  |  |  |  |  |  |  | 
CC[C@H](C)[C@H](NC(=O)[C@H](CO)NC(=O)[C@H](Cc1ccc(O)cc1)NC(=O)[C@H](CC(=O)O)NC(=O)[C@H](CO)NC(=O)[C@@H](NC(=O)[C@H](Cc1ccccc1)NC(=O)[C@@H](NC(=O)CNC(=O)[C@H](CCC(=O)O)NC(=O)CSCC(=O)NCCN1C(=O)c2ccc(C(C)(C)C)cc2C1=O)[C@@H](C)O)[C@@H](C)O)C(=O)N[C@@H](Cc1ccc(O)cc1)C(=O)N[C@@H](CC(C)C)C(=O)N[C@@H](CC(=O)O)C(=O)N[C@@H](CCCCN)C(=O)N[C@@H](CCC(N)=O)C(=O)N[C@@H](C)C(=O)N[C@@H](C)C(=O)NC(C)(C)C(=O)N[C@@H](CCC(=O)O)C(=O)N[C@@H](Cc1ccccc1)C(=O)N[C@H](C(=O)N[C@@H](CC(N)=O)C(=O)N[C@@H](Cc1c[nH]c2ccccc12)C(=O)N[C@@H](CC(C)C)C(=O)N[C@@H](CC(C)C)C(=O)N[C@@H](C)C(=O)NCC(=O)NCC(=O)N1CCC[C@H]1C(=O)N[C@@H](CO)C(=O)N[C@@H](CO)C(=O)NCC(=O)N[C@@H](C)C(=O)N1CCC[C@H]1C(=O)N1CCC[C@H]1C(=O)N1CCC[C@H]1C(=O)N[C@@H](CO)C(=O)N[C@@H](CCCCN)C(N)=O)C(C)C [Compound 164] | 10 to 100 | 10 to 100 | 68 | 68 | 10 to 100 | 10 to 100 | 99 to 105 | 99 to 105 | > 1000 |  |  |  |  |  |  |  | 
CC[C@H](C)[C@H](NC(=O)[C@H](CO)NC(=O)[C@H](Cc1ccc(O)cc1)NC(=O)[C@H](CC(=O)O)NC(=O)[C@H](CO)NC(=O)[C@@H](NC(=O)[C@H](Cc1ccccc1)NC(=O)[C@@H](NC(=O)CNC(=O)[C@H](CCC(=O)O)NC(=O)CCCNC(=O)CCN1C(=O)CSC1=O)[C@@H](C)O)[C@@H](C)O)C(=O)N[C@@H](Cc1ccc(O)cc1)C(=O)N[C@@H](CC(C)C)C(=O)N[C@@H](CC(=O)O)C(=O)N[C@@H](CCCCN)C(=O)N[C@@H](CCC(N)=O)C(=O)N[C@@H](C)C(=O)N[C@@H](C)C(=O)NC(C)(C)C(=O)N[C@@H](CCC(=O)O)C(=O)N[C@@H](Cc1ccccc1)C(=O)N[C@H](C(=O)N[C@@H](CC(N)=O)C(=O)N[C@@H](Cc1c[nH]c2ccccc12)C(=O)N[C@@H](CC(C)C)C(=O)N[C@@H](CC(C)C)C(=O)N[C@@H](C)C(=O)NCC(=O)NCC(=O)N1CCC[C@H]1C(=O)N[C@@H](CO)C(=O)N[C@@H](CO)C(=O)NCC(=O)N[C@@H](C)C(=O)N1CCC[C@H]1C(=O)N1CCC[C@H]1C(=O)N1CCC[C@H]1C(=O)N[C@@H](CO)C(=O)N[C@@H](CCCCN)C(N)=O)C(C)C [Compound 165] |  |  | 101 to 106 | 101 to 106 |  |  | 91 to 98 | 91 to 98 |  | 0.1 to 1 | 0.1 to 1 | 1 to 10 | 1 to 10 | > 1000 |  |  | 
CC[C@H](C)[C@H](NC(=O)[C@H](CO)NC(=O)[C@H](Cc1ccc(O)cc1)NC(=O)[C@H](CC(=O)O)NC(=O)[C@H](CO)NC(=O)[C@@H](NC(=O)[C@H](Cc1ccccc1)NC(=O)[C@@H](NC(=O)CNC(=O)[C@H](CCC(=O)O)NC(=O)CC(=O)NCCCN1C(=O)CSC1=O)[C@@H](C)O)[C@@H](C)O)C(=O)N[C@@H](Cc1ccc(O)cc1)C(=O)N[C@@H](CC(C)C)C(=O)N[C@@H](CC(=O)O)C(=O)N[C@@H](CCCCN)C(=O)N[C@@H](CCC(N)=O)C(=O)N[C@@H](C)C(=O)N[C@@H](C)C(=O)NC(C)(C)C(=O)N[C@@H](CCC(=O)O)C(=O)N[C@@H](Cc1ccccc1)C(=O)N[C@H](C(=O)N[C@@H](CC(N)=O)C(=O)N[C@@H](Cc1c[nH]c2ccccc12)C(=O)N[C@@H](CC(C)C)C(=O)N[C@@H](CC(C)C)C(=O)N[C@@H](C)C(=O)NCC(=O)NCC(=O)N1CCC[C@H]1C(=O)N[C@@H](CO)C(=O)N[C@@H](CO)C(=O)NCC(=O)N[C@@H](C)C(=O)N1CCC[C@H]1C(=O)N1CCC[C@H]1C(=O)N1CCC[C@H]1C(=O)N[C@@H](CO)C(=O)N[C@@H](CCCCN)C(N)=O)C(C)C [Compound 166] | < 0.1 | < 0.1 | 109 | 109 |  |  | 77 to 84 | 77 to 84 | > 1000 |  |  |  |  |  | 1 to 100 | 1 to 100 | 
CC[C@H](C)[C@H](NC(=O)[C@H](CO)NC(=O)[C@H](Cc1ccc(O)cc1)NC(=O)[C@H](CC(=O)O)NC(=O)[C@H](CO)NC(=O)[C@@H](NC(=O)[C@H](Cc1ccccc1)NC(=O)[C@@H](NC(=O)CNC(=O)[C@H](CCC(=O)O)NC(=O)/C=C/C(=O)NCCN1C(=O)CSC1=O)[C@@H](C)O)[C@@H](C)O)C(=O)N[C@@H](Cc1ccc(O)cc1)C(=O)N[C@@H](CC(C)C)C(=O)N[C@@H](CC(=O)O)C(=O)N[C@@H](CCCCN)C(=O)N[C@@H](CCC(N)=O)C(=O)N[C@@H](C)C(=O)N[C@@H](C)C(=O)NC(C)(C)C(=O)N[C@@H](CCC(=O)O)C(=O)N[C@@H](Cc1ccccc1)C(=O)N[C@H](C(=O)N[C@@H](CC(N)=O)C(=O)N[C@@H](Cc1c[nH]c2ccccc12)C(=O)N[C@@H](CC(C)C)C(=O)N[C@@H](CC(C)C)C(=O)N[C@@H](C)C(=O)NCC(=O)NCC(=O)N1CCC[C@H]1C(=O)N[C@@H](CO)C(=O)N[C@@H](CO)C(=O)NCC(=O)N[C@@H](C)C(=O)N1CCC[C@H]1C(=O)N1CCC[C@H]1C(=O)N1CCC[C@H]1C(=O)N[C@@H](CO)C(=O)N[C@@H](CCCCN)C(N)=O)C(C)C [Compound 167] |  |  | 94 to 99 | 94 to 99 |  |  |  |  |  | 0.1 to 10 | 0.1 to 10 | > 1000 | > 1000 | > 1000 |  |  | < 1
CC[C@H](C)[C@H](NC(=O)[C@H](CO)NC(=O)[C@H](Cc1ccc(O)cc1)NC(=O)[C@H](CC(=O)O)NC(=O)[C@H](CO)NC(=O)[C@@H](NC(=O)[C@H](Cc1ccccc1)NC(=O)[C@@H](NC(=O)CNC(=O)[C@H](CCC(=O)O)NC(=O)C[S+]([O-])CC(=O)NCCN1C(=O)CSC1=O)[C@@H](C)O)[C@@H](C)O)C(=O)N[C@@H](Cc1ccc(O)cc1)C(=O)N[C@@H](CC(C)C)C(=O)N[C@@H](CC(=O)O)C(=O)N[C@@H](CCCCN)C(=O)N[C@@H](CCC(N)=O)C(=O)N[C@@H](C)C(=O)N[C@@H](C)C(=O)NC(C)(C)C(=O)N[C@@H](CCC(=O)O)C(=O)N[C@@H](Cc1ccccc1)C(=O)N[C@H](C(=O)N[C@@H](CC(N)=O)C(=O)N[C@@H](Cc1c[nH]c2ccccc12)C(=O)N[C@@H](CC(C)C)C(=O)N[C@@H](CC(C)C)C(=O)N[C@@H](C)C(=O)NCC(=O)NCC(=O)N1CCC[C@H]1C(=O)N[C@@H](CO)C(=O)N[C@@H](CO)C(=O)NCC(=O)N[C@@H](C)C(=O)N1CCC[C@H]1C(=O)N1CCC[C@H]1C(=O)N1CCC[C@H]1C(=O)N[C@@H](CO)C(=O)N[C@@H](CCCCN)C(N)=O)C(C)C (stereo partly shown) [Compound 170] |  |  | 99 | 99 |  |  |  |  |  | 1 to 10 | 1 to 10 | > 1000 | > 1000 | > 1000 |  |  | 5 to 8
